Counter-ions that a name gives are not always drawn. Like-named read-outs stand apart in the source and are kept apart here.
How the values were obtained:
[1] = tested on: K562 cells; test: Cell Titer Glo 2.0 cell viability assay, K562; type: cell-based; settings: Homo sapiens, 72 hours incubation
[2] = tested on: MYB mRNA; test: Splicing RT-qPCR assay, MYB canonical (CJ) and alternative (AJ) junction mRNA; type: cell-based, human; settings: Homo sapiens; for AC50: read-out: MYB AJ (AC50, increase in alternative junction mRNA)
Summary of the method: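 Canonical (CJ) and alternative-exon (AJ) junction mRNAs quantified by one-step RT-qPCR in cell lysates, normalized to housekeeping PPIA for A673 and GAPDH or GUSB for K562. Cells were exposed 24 h at 37 °C to 11-point 3-fold compound series from 10 uM final, with DMSO at or below 0.25%.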

[3] = tested on: HTT; test: Protein abundance, HiBit-assay system (Promega), HTT; type: cell-based; settings: Table 6; HiBiT-modified K562 cells, 24 hours
From the text: In some embodiments, a compound of Formula (I) or (II) or a pharmaceutically acceptable salt thereof, e.g., as described herein, modulates the expression of a target protein (e.g., HTT or MYB) in a reference cell or sample. In an embodiment, a compound of Formula (I) or (II) or a pharmaceutically acceptable salt thereof, e.g., as described herein, increases the expression of a target protein (e.g., HTT or MYB) in a reference cell or sample. In an embodiment, a compound of Formula (I) or (II) or a pharmaceutically acceptable salt thereof, e.g., as described herein, decreases the expression of a target protein (e.g., HTT or MYB) in a reference cell or sample. The effect of an exemplary compound of Formula (I) or (II) on protein abundance may be measured using a standard assay for measuring protein abundance, such as the HiBit-assay system (Promega). In this assay, percent response for each respective cell line may be as calculated at each compound concentration as follows: % response=100*(S−PC)/(NC−PC). For the normalized response at each concentration, a four-parameter logistical regression may be fit to the data and the response may be interpolated at the 50% value to determine a concentration for protein abundance at 50% (IC50) an untreated control. In an embodiment, a compound of Formula (I) or (II) or a pharmaceutically acceptable salt thereof, e.g., as described herein, has a protein abundance response less than 100 nM. In an embodiment, a compound of Formula (I) or (II) or a pharmaceutically acceptable salt thereof, e.g., as described herein, has a protein abundance response between 100-1000 nM. In an embodiment, a compound of Formula (I) or (II) or a pharmaceutically acceptable salt thereof, e.g., as described herein, has a protein abundance response greater than 1000 nM. In an embodiment, a compound of Formula (I) or (II) or a pharmaceutically acceptable salt thereof, e.g., as described herein, has a protein abundance response greater than 10 uM. In an embodiment, a compound of Formula (I) or (II) or a pharmaceutically acceptable salt thereof, e.g., as described herein, modulates the protein abundance of a target protein by about 1%, 5%, 10%, 15%, 20%, 25%, 30%, 35%, 40%, 45%, 50%, 55%, 60%, 65%, 70%, 75%, 80%, 85%, 90%, 95%, 99% or more, e.g., compared with a reference compound.

[4] = Tables 4A/4B, canonical junction qPCR panel, read-out: MYB (IC50, decrease in CJ mRNA, gene panel)
[5] = 24 h, A673 or K562 cells, 24 hours compound treatment, RT-qPCR
[6] = 24 h, A673 or K562 cells, 24 hours compound treatment, RT-qPCR, read-out: MYB CJ (IC50, decrease in canonical junction mRNA)
[7] = A673 or K562 cells, 24 hours compound treatment, RT-qPCR
[8] = A673 or K562 cells, 24 hours compound treatment, RT-qPCR, read-out: MYB CJ (IC50, decrease in canonical junction mRNA)

Compound | GI50 [1] [nM] | IC50 [2, 4] [nM] | IC50 [3] [nM] | AC50 [2, 5] [nM] | IC50 [2, 6] [nM] | AC50 [2, 7] [nM] | IC50 [2, 8] [nM]
Cc1cn2cc(NC(=O)c3ccc(N4CCNC5(CC5)C4)c4cc(C)oc34)cc(F)c2n1 [Compound 194] | 100 to 1000 | 100 to 1000 | 1000 to 10000 | – | – | – | –
Cc1cn2cc(NC(=O)c3ccc(N4CC(C)(C)NC(C)(C)C4)c4cc(C)oc34)cc(F)c2n1 [Compound 195] | 100 to 1000 | 100 to 1000 | > 10000 | 1000 to 10000 | 100 to 1000 | – | –
CCNC1CCN(c2ccc(C(=O)Nc3cc(F)c4nc(C)cn4c3)c3oc(C)cc23)CC1 [Compound 196] | < 100 | 100 to 1000 | 100 to 1000 | – | – | – | –
Cc1cn2cc(NC(=O)c3ccc(N4CCC(NC(C)(C)C)CC4)c4cc(C)oc34)cc(F)c2n1 [Compound 197] | 100 to 1000 | 1000 to 10000 | > 10000 | 1000 to 10000 | 1000 to 10000 | – | –
CC1=CC2C(N3CCC(N(C)C)CC3)=CC=C(C(=O)Nc3cc(F)c4nc(C)cn4c3)C2O1 (centres unmarked) [Compound 198] | < 100 | < 100 | 1000 to 10000 | – | – | – | –
Cc1cn2cc(NC(=O)c3ccc(N4CCN5CCCC5C4)c4cc(C)oc34)cc(F)c2n1 (centres unmarked) [Compound 199] | 100 to 1000 | 100 to 1000 | 1000 to 10000 | 100 to 1000 | 100 to 1000 | – | –
Cc1cn2cc(NC(=O)c3ccc(C4CCNCC4)c4cn(C)nc34)cc(F)c2n1 [Compound 208] | 100 to 1000 | < 100 | 100 to 1000 | – | – | – | –
Cc1cc2c(N3CCNCC3)ccc(C(=O)Nc3cc(F)c4cn(C)nc4c3)c2o1 [Compound 217] | 100 to 1000 | > 10000 | > 10000 | > 10000 | > 10000 | – | –
CCn1cc2c(N3CC[C@@H](NC)C3)ccc(C(=O)Nc3cc(Cl)c4nc(C)cn4c3)c2n1 [Compound 556, N-{8-chloro-2-methylimidazo[1,2-a]pyridin-6-yl}-2-ethyl-4-[(3R)-3-(methylamino)pyrrolidin-1-yl]indazole-7-carboxamide] | 100 to 1000 | – | 1000 to 10000 | > 10000 | 1000 to 10000 | – | –
CCn1cc2c(N3CCC(N)(CC)CC3)cc(F)c(C(=O)Nc3cc(F)c4nc(C)cn4c3)c2n1 [Compound 557, 4-(4-amino-4-ethylpiperidin-1-yl)-2-ethyl-6-fluoro-N-{8-fluoro-2-methylimidazo[1,2-a]pyridin-6-yl}indazole-7-carboxamide] | < 100 | – | 100 to 1000 | < 100 | < 100 | – | –
CCn1cc2c(N3CCC(N[C@H]4C[C@@H](O)C4)CC3)ccc(C(=O)Nc3cc(F)c4nc(C)cn4c3)c2n1 [Compound 559, 2-ethyl-N-{8-fluoro-2-methylimidazo[1,2-a]pyridin-6-yl}-4-(4-{[(1s,3s)-3-hydroxycyclobutyl]amino}piperidin-1-yl) indazole-7-carboxamide] | < 100 | – | 100 to 1000 | < 100 | < 100 | – | –
CCn1cc2c(N3CCC(N[C@H]4C[C@H](O)C4)CC3)ccc(C(=O)Nc3cc(F)c4nc(C)cn4c3)c2n1 [Compound 560, 2-ethyl-N-{8-fluoro-2-methylimidazo[1,2-a]pyridin-6-yl}-4-(4-{[(1r,3r)-3-hydroxycyclobutyl]amino}piperidin-1-yl) indazole-7-carboxamide] | < 100 | – | 1000 to 10000 | 100 to 1000 | 100 to 1000 | – | –
Cc1cn2cc(NC(=O)c3ccc(N4CC[C@@H](N5CCNCC5)C4)c4cn(C)nc34)cc(F)c2n1 [Compound 562, N-{8-fluoro-2-methylimidazo[1,2-a]pyridin-6-yl}-2-methyl-4-[(3R)-3-(piperazin-1-yl)pyrrolidin-1-yl]indazole-7-carboxamide hydrochloride] | 1000 to 10000 | – | > 10000 | 1000 to 10000 | 1000 to 10000 | – | –
Cc1cn2cc(NC(=O)c3ccc(N4CC5NC5C4)c4cn(C)nc34)cc(F)c2n1 (centres unmarked) [Compound 563, 4-{3,6-diazabicyclo[3.1.0]hexan-3-yl}-N-{8-fluoro-2-methylimidazo[1,2-a]pyridin-6-yl}-2-methylindazole-7-carboxamide] | 100 to 1000 | – | 100 to 1000 | – | – | < 100 | < 100
Cc1cn2cc(NC(=O)c3ccc(N4C5CNCC54)c4cn(C)nc34)cc(F)c2n1 (centres unmarked) [Compound 564, 4-{3,6-diazabicyclo[3.1.0]hexan-6-yl}-N-{8-fluoro-2-methylimidazo[1,2-a]pyridin-6-yl}-2-methylindazole-7-carboxamide] | 100 to 1000 | – | 100 to 1000 | – | – | < 100 | < 100
CCn1cc2c(N3CCNCC3)ccc(C(=O)Nc3cc(F)c4nc(C)c(F)n4c3)c2n1 [Compound 565, N-{3,8-difluoro-2-methylimidazo[1,2-a]pyridin-6-yl}-2-ethyl-4-(piperazin-1-yl) indazole-7-carboxamide; trifluoroacetic acid] | 1000 to 10000 | – | 1000 to 10000 | > 10000 | > 10000 | – | –
CCn1cc2c(N3CCNCC3)ccc(C(=O)Nc3cn4cc(C)nc4c(Oc4ccccc4)n3)c2n1 [Compound 566, 2-ethyl-N-{2-methyl-8-phenoxyimidazo[1,2-a]pyrazin-6-yl}-4-(piperazin-1-yl) indazole-7-carboxamide] | 100 to 1000 | – | 1000 to 10000 | 100 to 1000 | 100 to 1000 | – | –
Cc1cn2cc(NC(=O)c3ccc(N4CC[C@@H](NC56CC(C5)C6)C4)c4cn(C)nc34)cc(F)c2n1 [Compound 568, 4-[(3R)-3-{bicyclo[1.1.1]pentan-1-ylamino}pyrrolidin-1-yl]-N-{8-fluoro-2-methylimidazo[1,2-a]pyridin-6-yl}-2-methylindazole-7-carboxamide] | 100 to 1000 | – | 1000 to 10000 | 1000 to 10000 | 1000 to 10000 | – | –
CCn1cc2c(N3CCC(NC4CC4)C3)cc(F)c(C(=O)Nc3cc(F)c4nc(C)cn4c3)c2n1 (centres unmarked) [Compound 569, 4-[3-(cyclopropylamino)pyrrolidin-1-yl]-2-ethyl-6-fluoro-N-{8-fluoro-2-methylimidazo[1,2-a]pyridin-6-yl}indazole-7-carboxamide] | 100 to 1000 | – | 1000 to 10000 | < 100 | < 100 | – | –
Cc1cn2cc(NC(=O)c3c(F)cc(N4CC[C@@H](NC5CC5)C4)c4cn(C)nc34)cc(F)c2n1 [Compound 571, 4-[(3R)-3-(cyclopropylamino)pyrrolidin-1-yl]-6-fluoro-N-{8-fluoro-2-methylimidazo[1,2-a]pyridin-6-yl}-2-methylindazole-7-carboxamide] | 100 to 1000 | – | 100 to 1000 | < 100 | < 100 | – | –

From patent US20250154169A1, “COMPOUNDS AND METHODS FOR MODULATING SPLICING” (REMIX THERAPEUTICS INC., priority 2021, published 2025)
